Results published in patent US20090312414A1, “Treatment Of Lower Urinary Tract Dysfunction With CB2-Receptor-Selective Agonists” (priority 2008, published 2009).

Columns and labels:
conscious normal rats = test: Cystometry in normal conscious rats; format: in vivo, rat; settings: for Residual volume (RV): ns
Description: This study involved a determination of the acute effect of the compound of Formula I, a peripherally-selective, CB2-receptor-selective agonist, on normal bladder function in normal conscious freely moving rats using cystometry.
Female Sprague-Dawley rats, weighing 225-300 g, were maintained under standard laboratory conditions with a 12:12 light/dark cycle and free access to food pellets and water. After surgical procedures, rats were individually caged to prevent chewing of the catheters. For surgical procedures, the rats were anesthetized by intraperitoneal injection of 75 mg/kg ketamine (Ketalar®, Pfizer, Sweden) and 15 mg/kg xylazine (Rompun®, Bayer, Sweden).
The bladder was exposed via a mid-line incision of the lower abdomen. A saline-filled polyethylene catheter (PE-50, Clay-Adams, Parsippany, N.J.) with a cuff was inserted into the dome of the bladder and held in place with a purse string suture. The catheter was tunneled subcutaneously and anchored at the neck with a silk ligature, and the free end of the catheter was sealed.
In the same surgical session as for implantation of the bladder catheter, access to the femoral vein was given via the mid-line incision of the lower abdomen after careful blunt dissection of the subcutaneous fascias and the femoral vascular sheath. A stretched PE-50 catheter filled with heparinized saline was introduced into the femoral vein and forwarded with its tip in the iliac vein. The catheter was then secured in position by two ligatures, tunneled subcutaneously to the skin of the back and anchored as described above, and the free end of the catheter was sealed.
The appropriate solution of the compound of Formula I was prepared on the day of the experiment using phosphate-buffered saline (“PBS”) as the vehicle. The compound of Formula I was dissolved to obtain a 10 mg/ml stock solution. For the 3 mg/kg dose, each animal was administered individually weight-controlled amounts in a volume of approximately 100 μl IV of the stock solution. For lower doses, appropriate dilutions of the stock solution were made and animals were administered similar volumes containing 0.3 or 1 mg/kg. […] After administration of the compound of Formula I, 100 μl of heparinized saline was also infused to flush the IV catheter, and a 90 to 120-minute observation period was allowed until final stable micturitions were obtained. Each animal served as its own control.
Cystometry was performed without anesthesia three days after the implantation of bladder catheters in normal rats. The conscious rats were placed in metabolic cages without restraint and the bladder catheters were connected via a T-tube to a pressure transducer (P23 DC; Statham Instruments Inc., Oxnard, Calif.) and a microinjection pump (CMA 100; Carnegie Medicine AB, Solna, Sweden). Micturition volumes were recorded with a fluid collector connected to a force displacement transducer (FT 03 D, Grass Instrument Co., Quincy, Mass.). Room-temperature saline was infused into the bladder continuously at a rate of 10 ml/h. Pressures and micturition volumes were recorded continuously with Acq Knowledge 3.8.1 software and a MP100 data acquisition system (Biopac Syst. Inc. Santa Barbara, Calif.) connected to a Grass polygraph (Model 7E, Grass Instrument Co). At the beginning of cystometry, the bladder was emptied via the bladder catheter.
The following urodynamic parameters were investigated: micturition pressure (“MP;” maximum bladder pressure during micturition), threshold pressure (“ThP”; bladder pressure at start of detrusor contraction), flow pressure (“FP”; bladder pressure when urethra opens), micturition interval (“MI”; time between two micturitions), micturition volume (“MV”; volume of the expelled urine), and residual volume (“RV”; volume left in bladder after a micturition). […]

[1] = Actual solubility in aqueous buffers; format: physicochemical; settings: aqueous buffer
Description: The actual solubility of certain compounds of the invention was assessed in aqueous buffers and final concentration of compounds was determined using HPLC and spectrophotometer methodologies.

[2] = tested on: isolated detrusor from rats with partial urethral obstruction; test: Carbachol-induced contractions in bladder strips from PUO rats; format: ex vivo, rat; settings: strips from PUO rats treated for 2 weeks
Description: The effect of chronic treatment with the compound of Formula I was studied in contractility studies with isolated bladder strips from rats with PUO after 2 weeks of treatment with the compound of Formula I.
Bladder strips (2×2×6 mm) were dissected from PUO rat bladders. Silk ligatures were applied at both ends of the preparations which then were mounted on metal prongs in 5 ml aerated (95% O2 and 5% CO2) tissue baths (37° C.) containing Krebs solution. Mechanical activity was registered with Grass FT 03C force transducers connected to a Grass Polygraph model 7E. The preparations were stretched to a tension of approximately 10 mN and left to equilibrate for 45 minutes to attain a stable resting tonus. To establish the viability of the preparations and to determine a standard contractile level, preparations were exposed to a 60 mM K^+ Krebs solution. The effects of cumulative addition of carbachol, a non-selective muscarininc agonist (1 nM-0.1 mM), were studied in strip preparations from vehicle-treated and compound of Formula I-treated rats with PUO.
Transmural activation of nerves was performed with two platinum electrodes, placed in parallel to the sides of the strips in the organ baths. […] All contractile responses were expressed as a percentage of the contraction elicited by 60 mM K^+ Krebs solution. […]

For `CCCCCCC(C)(C)c1cc(O)c([C@H]2CC(=O)[C@H]3C[C@@H]2C3(C)C)c(OC(=O)/C=C/C(=O)O)c1` [Formula I], the “Basal pressure (BP)” value (conscious normal rats; 0.3 mg/kg IV) was 4.7±2.0 cmH2O, the “Micturition pressure (MP)” value (conscious normal rats; 0.3 mg/kg IV) was 64.3±12.3 cmH2O and the “Rats responding with increased MI” value (conscious normal rats; 0.3 mg/kg IV) was 5 out of 8. For the same compound, the “Rats responding with increased MV” value (conscious normal rats; 0.3 mg/kg IV) was 5 out of 8, the “Rats responding with increased ThP” value (conscious normal rats; 0.3 mg/kg IV) was 5 out of 8 and the “Bladder capacity (BC)” value (conscious normal rats; 0.3 mg/kg IV, not significant) was 0.98 ± 0.21 mL. The “Flow pressure (FP)” value (conscious normal rats; 0.3 mg/kg IV, not significant) was 34.1±8.8 cmH2O, the “Micturition interval (MI)” value (conscious normal rats; 0.3 mg/kg IV, not significant) was 260 ± 69 s and the “Micturition volume (MV)” value (conscious normal rats; 0.3 mg/kg IV, not significant) was 0.93 ± 0.21 mL. The “Threshold pressure (ThP)” value (conscious normal rats; 0.3 mg/kg IV, not significant) was 16.5±2.2 cmH2O, the “Residual volume (RV)” value (conscious normal rats; 0.3 mg/kg IV) was 0.01 ± 0.01 mL and the “Basal pressure (BP)” value (conscious normal rats; 1 mg/kg IV) was 3.7±1.2 cmH2O. For the same compound, the “Micturition pressure (MP)” value (conscious normal rats; 1 mg/kg IV) was 65.1±8.6 cmH2O, the “Rats responding with increased MI” value (conscious normal rats; 1 mg/kg IV) was 3 out of 8 and the “Rats responding with increased MV” value (conscious normal rats; 1 mg/kg IV) was 6 out of 8. For the same compound, the “Rats responding with increased ThP” value (conscious normal rats; 1 mg/kg IV) was 1 out of 8, the “Bladder capacity (BC)” value (conscious normal rats; 1 mg/kg IV, not significant) was 0.91 ± 0.17 mL and the “Flow pressure (FP)” value (conscious normal rats; 1 mg/kg IV, not significant) was 26.0±2.4 cmH2O. For the same compound, the “Micturition interval (MI)” value (conscious normal rats; 1 mg/kg IV, not significant) was 251 ± 63 s, the “Micturition volume (MV)” value (conscious normal rats; 1 mg/kg IV, not significant) was 0.90 ± 0.17 mL and the “Threshold pressure (ThP)” value (conscious normal rats; 1 mg/kg IV, not significant) was 12.6±2.0 cmH2O. The “Residual volume (RV)” value (conscious normal rats; 1 mg/kg IV) was 0.01 ± 0.01 mL, the “Basal pressure (BP)” value (conscious normal rats; 3 mg/kg IV) was 9.0±4.3 cmH2O and the “Micturition pressure (MP)” value (conscious normal rats; 3 mg/kg IV) was 87.3±18.9 cmH2O. The “Rats responding with increased FP” value (conscious normal rats; 3 mg/kg IV) was 6 out of 8, the “Rats responding with increased MI” value (conscious normal rats; 3 mg/kg IV) was 7 out of 8 and the “Rats responding with increased MV” value (conscious normal rats; 3 mg/kg IV) was 7 out of 8. The “Rats responding with increased ThP” value (conscious normal rats; 3 mg/kg IV) was 7 out of 8, the “Threshold pressure (ThP)” value (conscious normal rats; 3 mg/kg IV, ANOVA ns, paired t-test vs. baseline p=0.05) was 38.1±13.9 cmH2O and the “Flow pressure (FP)” value (conscious normal rats; 3 mg/kg IV, not significant) was 62.3±18.4 cmH2O. The “Residual volume (RV)” value (conscious normal rats; 3 mg/kg IV) was 0.02 ± 0.02 mL, the “Bladder capacity (BC)” value (conscious normal rats; 3 mg/kg IV, p<0.001 vs. baseline, p<0.005 vs. vehicle) was 1.42 ± 0.18 mL and the “Micturition volume (MV)” value (conscious normal rats; 3 mg/kg IV, p<0.001 vs. baseline, p<0.01 vs. vehicle) was 1.4 ± 0.2 mL. The “Micturition interval (MI)” value (conscious normal rats; 3 mg/kg IV, p<0.02 vs. baseline) was 423 ± 63 s, the “Animals responding with an increase or decrease in FP” value (conscious normal rats; 0.3 and 1 mg/kg IV) was 50% and the “Animals with a decrease in BP” value (conscious normal rats; all doses (0.3, 1, 3 mg/kg IV)) was 37.5-50 % of rats. For the same compound, the “Animals with an increase in BP” value (conscious normal rats; all doses (0.3, 1, 3 mg/kg IV)) was 25-37.5 % of rats, the “Animals with no change in BP” value (conscious normal rats; all doses (0.3, 1, 3 mg/kg IV)) was 12.5-25 % of rats and the “Rats responding with increased BC” value (conscious normal rats; all doses (0.3, 1, 3 mg/kg IV)) was 6 out of 8. For the same compound, the solubility [1] was greater than 10000 µg/mL, the “Carbachol-induced detrusor contractions vs vehicle-treated PUO rats” value ([2]; carbachol 1 nM to 1 μM) was “no differences” and the “Maximal response to carbachol vs vehicle-treated PUO rats” value ([2]; simultaneous curve fitting, p<0.0008) was “significant increase”.
